Results taken from ChEMBL document CHEMBL1201862, “PubChem BioAssay data set” (2004).
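Exposure lasted 48 hours, with cells grown in 96-well plates and compounds tested at five concentrations. Abbreviation: GI50, concentration required for 50% inhibition of growth.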 The source made the active and inactive calls. Cut-off read from the data, not from the text of the source: active = GI50 up to about 1.1 µM and inactive = higher.

What was measured:
Assay in all cases: NCI tumour cell line growth inhibition, 48 h
A549 = tested on: A549
EKVX = tested on: EKVX
HCT-116 = tested on: HCT-116
HL-60 = tested on: HL-60
HOP-62 = tested on: HOP-62
HOP-92 = tested on: HOP-92
IGROV-1 = tested on: IGROV-1
K562 = tested on: K562
KM12 = tested on: KM12
NCI-H23 = tested on: NCI-H23
NCI-H460 = tested on: NCI-H460
OVCAR-4 = tested on: OVCAR-4
SF-295 = tested on: SF-295
SF-539 = tested on: SF-539
SK-MEL-28 = tested on: SK-MEL-28
SK-OV-3 = tested on: SK-OV-3
SNB-75 = tested on: SNB-75
SW-620 = tested on: SW-620
UACC-257 = tested on: UACC-257
SK-MEL-2 = tested on: SK-MEL-2

Measured: GI50

c1ccc(CCn2cncn2)cc1
inactive: A549 > 100 µM | EKVX > 100 µM | HCT-116 > 100 µM | HL-60 > 100 µM | HOP-62 > 100 µM | HOP-92 > 100 µM | IGROV-1 > 100 µM | K562 > 100 µM | KM12 > 100 µM | NCI-H23 > 100 µM | NCI-H460 > 100 µM | OVCAR-4 > 100 µM | SF-295 > 100 µM | SF-539 > 100 µM | SK-MEL-28 > 100 µM | SK-OV-3 > 100 µM | SNB-75 > 100 µM | SW-620 > 100 µM | UACC-257 > 100 µM

COc1cc2c(cc1OC)-c1cc3ccccc3c[n+]1CC2
inactive: A549 > 100 µM | EKVX > 100 µM | HCT-116 > 100 µM | HOP-62 > 100 µM | HOP-92 > 100 µM | IGROV-1 > 100 µM | K562 48.4 µM | KM12 65.3 µM | NCI-H23 > 100 µM | NCI-H460 > 100 µM | OVCAR-4 > 100 µM | SF-295 74.8 µM | SF-539 > 100 µM | SK-MEL-28 > 100 µM | SK-MEL-2 > 100 µM | SK-OV-3 > 100 µM | SNB-75 > 100 µM | SW-620 > 100 µM | UACC-257 89.5 µM

CCOC(=O)/C=C(\C)c1ccc(Cl)cc1
inactive: A549 > 100 µM | EKVX > 100 µM | HCT-116 > 100 µM | HL-60 > 100 µM | HOP-92 > 100 µM | IGROV-1 > 100 µM | K562 > 100 µM | KM12 > 100 µM | NCI-H23 > 100 µM | NCI-H460 > 100 µM | OVCAR-4 > 100 µM | SF-295 > 100 µM | SF-539 > 100 µM | SK-MEL-28 > 100 µM | SK-MEL-2 > 100 µM | SNB-75 > 100 µM | SW-620 > 100 µM | UACC-257 > 100 µM

Nc1ccc(Sc2nnc(N)s2)cc1
inactive: A549 > 100 µM | EKVX > 100 µM | HCT-116 > 100 µM | HL-60 > 100 µM | HOP-62 > 100 µM | IGROV-1 > 100 µM | K562 > 100 µM | KM12 > 100 µM | NCI-H460 > 100 µM | OVCAR-4 > 100 µM | SF-295 > 100 µM | SF-539 > 100 µM | SK-MEL-28 > 100 µM | SK-OV-3 > 100 µM | SNB-75 > 100 µM | SW-620 > 100 µM | UACC-257 > 100 µM

COC(=O)C1=C(C(=O)OC)C2(C)C=CC1O2 (centres undefined)
inactive: A549 99.8 µM | EKVX 22 µM | HCT-116 10.5 µM | HOP-62 34.9 µM | HOP-92 5.01 µM | IGROV-1 19.4 µM | K562 4.52 µM | NCI-H23 17.8 µM | NCI-H460 > 100 µM | OVCAR-4 13.1 µM | SF-539 18.9 µM | SK-MEL-28 16 µM | SK-MEL-2 21.4 µM | SK-OV-3 > 100 µM | SNB-75 24.3 µM | SW-620 4.68 µM | UACC-257 15.9 µM

COc1cc(O)c2c(c1)C(=O)c1cc(C)cc(O)c1C2=O [PHYSCION]
inactive: A549 > 100 µM | EKVX > 100 µM | HCT-116 > 100 µM | HL-60 > 100 µM | HOP-62 > 100 µM | IGROV-1 > 100 µM | K562 > 100 µM | KM12 > 100 µM | NCI-H23 > 100 µM | NCI-H460 > 100 µM | OVCAR-4 > 100 µM | SF-295 > 100 µM | SF-539 > 100 µM | SK-MEL-28 > 100 µM | SK-MEL-2 > 100 µM | SK-OV-3 > 100 µM | SNB-75 93.8 µM | SW-620 > 100 µM | UACC-257 > 100 µM
